Assay results from patent US20130261178A1, “PHENOXYPROPANOL DERIVATIVES AND THEIR USE IN TREATING CARDIAC AND CARDIOVASCULAR DISEASES” (priority 2010, published 2013).

Columns and labels:
beta1-adrenoceptor [1] = molecular target: T1, beta1-adrenoceptor (Homo sapiens, UniProt P08588); test: 3H-CGP12177 whole-cell binding, CHO cells expressing human beta1-adrenoceptor; design: expressed in transfected cells; host or cells: CHO cells; conditions: 3H-CGP 12177 whole cell binding, mean ± s.e.mean; for Kd: log KD, read-out: Beta 1 Log KD (converted)
Source text: (§1) The selectivity of a ligand is given by the ratio of beta-1 to beta-2 KD.
Target sequence in this assay (P08588 whole entry): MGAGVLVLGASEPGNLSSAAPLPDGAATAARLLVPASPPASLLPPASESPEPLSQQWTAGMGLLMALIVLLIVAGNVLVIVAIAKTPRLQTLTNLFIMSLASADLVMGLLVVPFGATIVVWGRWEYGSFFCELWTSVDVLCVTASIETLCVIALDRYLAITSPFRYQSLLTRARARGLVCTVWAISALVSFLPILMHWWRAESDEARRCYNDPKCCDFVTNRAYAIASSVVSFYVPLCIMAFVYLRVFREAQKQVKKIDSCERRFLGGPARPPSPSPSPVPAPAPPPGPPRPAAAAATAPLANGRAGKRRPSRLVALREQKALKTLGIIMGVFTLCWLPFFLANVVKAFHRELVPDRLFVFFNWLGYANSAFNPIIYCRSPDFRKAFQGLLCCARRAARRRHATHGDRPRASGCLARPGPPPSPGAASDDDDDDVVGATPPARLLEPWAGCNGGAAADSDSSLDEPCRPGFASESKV

human beta3-adrenoceptor = molecular target: T2, human beta3-adrenoceptor (Homo sapiens, UniProt P13945); test: 3H-CGP12177 whole-cell binding, CHO cells expressing human beta3-adrenoceptor; conditions: 3H-CGP 12177 whole cell binding, log KD, mean ± s.e.mean, read-out: Beta 3 Log KD (converted)
T2 construct: expressed in transfected cells; host or cells: CHO cells
T2 sequence (P13945 whole entry): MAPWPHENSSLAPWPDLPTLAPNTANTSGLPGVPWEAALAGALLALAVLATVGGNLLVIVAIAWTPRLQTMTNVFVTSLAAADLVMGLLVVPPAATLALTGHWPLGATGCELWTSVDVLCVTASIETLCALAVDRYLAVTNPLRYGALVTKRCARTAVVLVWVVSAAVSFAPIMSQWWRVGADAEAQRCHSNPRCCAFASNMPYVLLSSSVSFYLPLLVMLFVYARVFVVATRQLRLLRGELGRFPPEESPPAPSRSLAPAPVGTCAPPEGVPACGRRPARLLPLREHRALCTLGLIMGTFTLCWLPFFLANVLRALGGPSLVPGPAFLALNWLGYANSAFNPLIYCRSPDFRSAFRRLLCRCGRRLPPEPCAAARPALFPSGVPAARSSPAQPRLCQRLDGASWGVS

human beta2-adrenoceptor = molecular target: T3, human beta2-adrenoceptor (Homo sapiens, UniProt P07550); test: 3H-CGP12177 whole-cell binding, CHO cells expressing human beta2-adrenoceptor; conditions: 3H-CGP 12177 whole cell binding, mean ± s.e.mean; for Kd: log KD, read-out: Beta 2 Log KD (converted)
T3 construct: expressed in transfected cells; host or cells: CHO cells
T3 sequence (P07550 whole entry): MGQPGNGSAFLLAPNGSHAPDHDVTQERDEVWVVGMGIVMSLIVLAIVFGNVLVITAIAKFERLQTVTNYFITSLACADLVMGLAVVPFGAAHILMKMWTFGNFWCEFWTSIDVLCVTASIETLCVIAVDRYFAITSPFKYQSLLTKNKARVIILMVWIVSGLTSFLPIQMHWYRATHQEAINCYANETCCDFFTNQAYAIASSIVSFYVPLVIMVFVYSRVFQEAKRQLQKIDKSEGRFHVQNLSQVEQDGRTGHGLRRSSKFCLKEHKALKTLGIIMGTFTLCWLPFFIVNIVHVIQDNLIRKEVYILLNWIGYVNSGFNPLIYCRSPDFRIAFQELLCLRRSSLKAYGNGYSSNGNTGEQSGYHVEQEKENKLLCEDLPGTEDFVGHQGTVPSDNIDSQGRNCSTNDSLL
Source text: as §1

[2] = test system: conscious, freely-moving rats; test: regional haemodynamics in conscious, freely-moving rats (responses to salbutamol and isoprenaline); type: in vivo, rat; conditions: atropine-treated rats
Source text: Preliminary assessment of the action of one of the compounds of the invention was undertaken using an in vivo model for monitoring regional haemodynamics in conscious, freely-moving rats (Gardiner & Bennett, Am J Physiol. 1988 October; 255(4 Pt 2):H813-24). This model has the distinct advantage of enabling measurement of regional blood flow in addition to blood pressure in the fully conscious state.

beta1-adrenoceptor [3] = molecular target: T1, beta1-adrenoceptor; conditions: background statement; cited from earlier work
Target sequence in this assay (P08588 whole entry, species assumed): as the sequence (P08588 whole entry) above

| Compound | Kd (beta1-adrenoceptor [1]) [µM] | Kd (human beta3-adrenoceptor) [µM] | Kd (human beta2-adrenoceptor) [µM] | melting point [°C] | Beta 1 Log KD (beta1-adrenoceptor [1]) | Beta 2 Log KD (human beta2-adrenoceptor) | further results |
| --- | --- | --- | --- | --- | --- | --- | --- |
| O=C(NCCNCC(O)COc1ccc(OCCOCC2CC2)cc1)Nc1ccc(O)cc1 (stereo not shown) [46a] | 0.0302 | 24.5 | > 100 | – | – | – | beta1-adrenoceptor selectivity in a conscious rat cardiovascular model ([2]; 10 mg/kg i.v.): highly beta1-adrenoceptor selective; reflex heart rate response to salbutamol ([2]; n=4, after 46a 10 mg/kg i.v., before +55±14): +7±4 beats/min; isoprenaline-induced tachycardia ([2]; n=4, after 46a 10 mg/kg i.v., before +74±12): +11±4 beats/min; increase in hindquarters vascular conductance (salbutamol) ([2]; n=4, after 46a 10 mg/kg i.v., before +106±20): +98±15%; increase in hindquarters vascular conductance (isoprenaline) ([2]; n=4, after 46a 10 mg/kg i.v., before +126±20): +129±19%; hypotension (salbutamol) ([2]; n=4, after 46a 10 mg/kg i.v., before −11±1): −11±3 mmHg; hypotension (isoprenaline) ([2]; n=4, after 46a 10 mg/kg i.v., before −19±3): −18±2 mmHg |
| O=C(NCCNCC(O)COc1ccc(OCCOC2CCCC2)cc1)Nc1ccc(Cl)cc1 (stereo not shown) [47m] | – | 13.5 | – | 133 to 140 | −7.95 ± 0.05 | −5.91 ± 0.86 | – |
| O=C(NCCNCC(O)COc1ccc(OCCOC2CCCC2)cc1)Nc1ccc(Br)cc1 (stereo not shown) [47p] | – | 9.33 | – | 148 to 150 | −7.77 ± 0.04 | −5.86 ± 0.04 | – |
| O=C(NCCNCC(O)COc1ccc(OCCOC2CCCC2)cc1)Nc1ccccc1C(F)(F)F (stereo not shown) [47q] | – | 24 | – | 128 to 130 | −6.94 ± 0.01 | −5.84 ± 0.02 | – |
| O=C(NCCNCC(O)COc1ccc(OCCOC2CCCC2)cc1)Nc1cccc(C(F)(F)F)c1 (stereo not shown) [47r] | – | 11.5 | – | 96 to 98 | −7.77 ± 0.06 | −5.86 ± 0.06 | – |
| O=C(NCCNCC(O)COc1ccc(OCCOC2CCCC2)cc1)Nc1ccc(C(F)(F)F)cc1 (stereo not shown) [47s] | – | 11.7 | – | 134 to 136 | −7.70 ± 0.04 | −5.76 ± 0.04 | – |
| O=C(NCCNCC(O)COc1ccc(OCCOC2CCCC2)cc1)Nc1ccc(O)cc1 (stereo not shown) [47v] | 0.00692 | 8.32 | – | 135 to 138 | – | −5.45 ± 0.10 | – |
| O=C(NCCNCC(O)COc1ccc(OCCOC2CCCC2)cc1)Nc1ccc(F)c(F)c1 (stereo not shown) [54a, 1-(2-(3-(4-(2-(Cyclopentyloxy)ethoxy)phenoxy)-2-hydroxypropylamino)ethyl)-3-(3,4-difluorophenyl)urea] | 0.00955 | 8.91 | 1.32 | 113 to 115 | – | – | – |
| O=C(NCCNCC(O)COc1ccc(OCCOC2CCCC2)cc1)c1ccccc1F (stereo not shown) [54g] | 0.204 | 3.09 | 1.74 | 75 to 76 | – | – | – |
| O=C(NCCNCC(O)COc1ccc(OCCOC2CCCC2)cc1)c1cccc(F)c1 (stereo not shown) [54h] | 0.0741 | 1.12 | 0.55 | 85 to 86 | – | – | – |
| O=C(NCCNCC(O)COc1ccc(OCCOC2CCCC2)cc1)c1ccc(F)cc1 (stereo not shown) [54i] | 0.0275 | 2.04 | 0.363 | 99 to 100 | – | – | – |
| CCOCCOc1ccc(OC[C@@H](O)CNCCc2ccc(OC)c(OC)c2)cc1 [D-140S] | – | – | – | – | – | – | β1-selectivity (beta1-adrenoceptor [3]): 4.400 fold |
| OC(CNCCOc1ccccc1)COc1ccc(OCCOC2CCCC2)cc1 (stereo not shown) [compound 48, 1-(2-Phenoxyethylamino)-3-(4-(2-(cyclopentyloxy)ethoxy)phenoxy)propan-2-ol] | 0.0347 | 4.47 | 0.912 | 155 to 157 | – | – | – |
